Values joined by “and” are separate entries in the source; they are usually repeats but may differ in a detail not shown here. Equal entries are not always repeated.
Columns and labels:
[1] = test system: pSP73KB plasmid DNA; assay: DNA interstrand cross-linking, denaturing agarose gel; format: biochemical; settings: in the dark
Protocol: Interstrand cross-links: In this experiment, interstrand cross-linking efficiency of photoactivated 1 or 2, and of 5 or 6 in the dark was investigated using pSP73KB plasmid DNA. The DNA samples were treated with complexes 5 or 6 in the dark or with 1 or 2 under irradiation conditions and then were analysed by agarose gel electrophoresis under denaturing conditions. The interstrand cross-linked DNA appears in the autoradiogram as the top bands (Figure 11), which migrate more slowly than the single-strand DNA (the bottom bands). The frequencies of interstrand cross-links formed by photoactivated 1 or 2, and 5 and 6 (in the dark) were 23(±5), 19(±3), 9(±3) and 16(±2) %, respectively.
Figure 11 Agarose gel electrophoresis for quantification of DNA interstrand cross-linking. The interstrand cross-links (ICLs) by: A) 1 or 2 under irradiation conditions (420 nm light), and B) 5 or 6 in the dark were formed in linear pSP73KB plasmid DNA. A) Lane 1: control, non-modified DNA; lane 2: control, non-modified DNA, but irradiated; lanes 3–7: DNA modified by photoactivated 1 at rb=3.35×10^−5, 6.70×10^−5, 3.35×10^−4, 6.70×10^−4, 3.35×10^−3, respectively; lanes 8–12: DNA modified by photoactivated 2 at rb=3.70×10^−5, 7.40×10^−5, 3.70×10^−4, 7.40×10^−4, 3.70×10^−3, respectively. […]

[2] = target: T1, HMGB1 protein (Homo sapiens, UniProt P09429); assay: HMGB1 recognition of platinated 50 bp duplex, gel mobility shift assay; format: binding; settings: 50 bp duplex modified in the dark
T1 sequence (P09429 1-215): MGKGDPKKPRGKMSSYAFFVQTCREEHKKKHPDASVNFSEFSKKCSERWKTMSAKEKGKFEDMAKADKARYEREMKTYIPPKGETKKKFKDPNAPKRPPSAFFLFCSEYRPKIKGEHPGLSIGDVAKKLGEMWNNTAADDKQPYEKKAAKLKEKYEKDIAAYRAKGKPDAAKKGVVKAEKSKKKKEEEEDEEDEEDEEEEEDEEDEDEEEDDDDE
Text: HMGB1 protein recognition: The interactions of high mobility group protein B1 (HMGB1) with a 50 bp duplex DNA adducts formed by 1 or 2 under irradiation conditions and 5 or 6 in the dark were investigated using a gel mobility shift assay.
Figure 13 Recognition by HMGB1 protein of platinated DNA. Affinity of full-length HMGB1 to non-modified (control) DNA (lanes 1 and 2) or DNA modified by cisplatin (7) in the dark (lanes 3 and 4), 5 in the dark (lanes 5 and 6), 6 in the dark (lanes 7 and 8), photoactivated 1 (420 nm light, lanes 9 and 10) or photoactivated 2 (420 nm light, lanes 11 and 12). Lanes 1, 3, 5, 7, 9, 11, no protein added; lanes 2, 4, 6, 8, 10, 12, 700 ng HMGB1 added.

SMILES	Interstrand cross-link [1]	HMGB1 protein recognition [2]
C[NH2+][Pt@SP3-2]([Cl])([Cl])[n+]1ccccc1 [Complex 5, trans-[PtCl2(MA)(Py)]]	9(±3) % and 9±3%	no detectable binding and no
C[NH2+][Pt@SP3-2]([Cl])([Cl])[n+]1ccsc1 [Complex 6, trans-[PtCl2(MA)(Tz)]]	16(±2) % and 16±2%	no detectable binding and no

Source: paper PMC4280898, “Diazido Mixed-Amine Platinum(IV) Anticancer Complexes Activatable by Visible-Light Form Novel DNA Adducts” (Chemistry (Weinheim an Der Bergstrasse, Germany), 2013)
